System: MV-4-11 cells
Assay: Gene expression microarray analysis (Affymetrix PrimeView) and GSEA
Type: cell-based, human
Set-up: RFU PODN (11730768_x_at) / Fold change /veh PODN (11730768_x_at) / RFU LINC00158 (11744669_a_at) / Fold change /veh LINC00158 (11744669_a_at) / RFU DUSP10 (11751237_a_at) / Fold change /veh DUSP10 (11751237_a_at) / RFU ID3 (11757404_x_at) / Fold change /veh ID3 (11757404_x_at) / RFU PLEKHG5 (11737974_s_at) / Fold change /veh PLEKHG5 (11737974_s_at) / RFU LRRC4B (11730491_at) / Fold change /veh LRRC4B (11730491_at) / RFU GIMAP4 (11747438_a_at) / Fold change /veh GIMAP4 (11747438_a_at) / RFU KRT8 (11758183_x_at) / Fold change /veh KRT8 (11758183_x_at) / RFU CNN1 (11734310_a_at) / Fold change /veh CNN1 (11734310_a_at) / RFU VPS37D (11726825_at) / Fold change /veh VPS37D (11726825_at) / RFU C10orf10 (11716522_x_at) / Fold change /veh C10orf10 (11716522_x_at) / RFU KIR2DL2 /// KIR2DL4 /// KIR2DL5A /// KIR2DL5B /// KIR2DS1 /// KIR2DS2 /// KIR2DS3 /// KIR2DS4 /// KIR3DL3 /// KIR3DL3 /// KIR3DS1 (11738374_at) / Fold change /veh KIR2DL2 /// KIR2DL4 /// KIR2DL5A /// KIR2DL5B /// KIR2DS1 /// KIR2DS2 /// KIR2DS3 /// KIR2DS4 /// KIR3DL3 /// KIR3DL3 /// KIR3DS1 (11738374_at) / RFU C1QL1 (11718748_at) / Fold change /veh C1QL1 (11718748_at) / RFU TMPRSS4 (11747572_a_at) / Fold change /veh TMPRSS4 (11747572_a_at) / RFU HAMP (11756126_x_at) / Fold change /veh HAMP (11756126_x_at) / RFU RNFT2 (11725882_a_at) / Fold change /veh RNFT2 (11725882_a_at) / RFU NR4A2 (11747474_a_at) / Fold change /veh NR4A2 (11747474_a_at) / RFU ABCC12 (11746883_a_at) / Fold change /veh ABCC12 (11746883_a_at) / RFU TMEM136 (11760407_x_at) / Fold change /veh TMEM136 (11760407_x_at) / RFU CLDN22 /// WWC2 (11732394_at) / Fold change /veh CLDN22 /// WWC2 (11732394_at) / RFU HLA-DPB1 (11760878_x_at) / Fold change /veh HLA-DPB1 (11760878_x_at) / RFU SPINT1 (11716480_a_at) / Fold change /veh SPINT1 (11716480_a_at) / RFU GAP43 (11754022_s_at) / Fold change /veh GAP43 (11754022_s_at) / RFU A4GNT (11735810_at) / Fold change /veh A4GNT (11735810_at) / RFU PRB3 (11715151_x_at) / Fold change /veh PRB3 (11715151_x_at) / RFU TUBB4B (11761932_at) / Fold change /veh TUBB4B (11761932_at) / RFU CAPN14 (11732068_a_at) / Fold change /veh CAPN14 (11732068_a_at) / RFU TMCC2 (11721928_a_at) / Fold change /veh TMCC2 (11721928_a_at) / RFU IRGQ (11745062_a_at) / Fold change /veh IRGQ (11745062_a_at) / RFU FAM174B (11720279_a_at) / Fold change /veh FAM174B (11720279_a_at) / RFU TMPRSS4 (11748680_a_at) / Fold change /veh TMPRSS4 (11748680_a_at) / RFU FAM212B (11763350_a_at) / Fold change /veh FAM212B (11763350_a_at) / RFU PLEKHG5 (11743358_a_at) / Fold change /veh PLEKHG5 (11743358_a_at) / RFU ZSCAN30 (11745921_a_at) / Fold change /veh ZSCAN30 (11745921_a_at) / RFU CMKLR1 (11741424_a_at) / Fold change /veh CMKLR1 (11741424_a_at) / RFU LOC101060620 /// MAPK8IP1 (11723275_at) / Fold change /veh LOC101060620 /// MAPK8IP1 (11723275_at) / RFU SPTSSB (11747773_x_at) / Fold change /veh SPTSSB (11747773_x_at) / RFU PRSS12 (11739890_at) / Fold change /veh PRSS12 (11739890_at) / RFU BIN1 (11741810_x_at) / Fold change /veh BIN1 (11741810_x_at) / RFU WNT11 (11732464_a_at) / Fold change /veh WNT11 (11732464_a_at) / RFU C10orf10 (11716521_a_at) / Fold change /veh C10orf10 (11716521_a_at) / RFU C5orf56 (11738089_at) / Fold change /veh C5orf56 (11738089_at) / RFU CYB561 (11721691_x_at) / Fold change /veh CYB561 (11721691_x_at) / RFU ANKRD19P (11752326_a_at) / Fold change /veh ANKRD19P (11752326_a_at) / RFU OR2T12 /// OR2T33 /// OR2T8 (11738714_s_at) / Fold change /veh OR2T12 /// OR2T33 /// OR2T8 (11738714_s_at) / RFU VCAN (11748164_a_at) / Fold change /veh VCAN (11748164_a_at) / RFU JSRP1 (11732532_at) / Fold change /veh JSRP1 (11732532_at) / RFU KRTAP10-11 (11738290_x_at) / Fold change /veh KRTAP10-11 (11738290_x_at) / RFU MYO3A (11730013_a_at) / Fold change /veh MYO3A (11730013_a_at) / RFU EBF3 (11725865_a_at) / Fold change /veh EBF3 (11725865_a_at) / RFU CAMK2N1 (11719241_x_at) / Fold change /veh CAMK2N1 (11719241_x_at) / RFU C5orf56 (11738088_a_at) / Fold change /veh C5orf56 (11738088_a_at) / RFU OLFML3 (11715873_a_at) / Fold change /veh OLFML3 (11715873_a_at) / RFU LOC100653217 /// NTM (11731650_a_at) / Fold change /veh LOC100653217 /// NTM (11731650_a_at) / RFU MAPK11 (11762145_a_at) / Fold change /veh MAPK11 (11762145_a_at) / RFU FIZ1 (11724087_x_at) / Fold change /veh FIZ1 (11724087_x_at) / RFU OASL (11726364_x_at) / Fold change /veh OASL (11726364_x_at) / RFU SOX15 (11748057_x_at) / Fold change /veh SOX15 (11748057_x_at) / RFU CD79A (11719716_a_at) / Fold change /veh CD79A (11719716_a_at) / RFU HIST1H1D (11736915_at) / Fold change /veh HIST1H1D (11736915_at) / RFU CASKIN2 (11723855_a_at) / Fold change /veh CASKIN2 (11723855_a_at) / RFU LOC730098 (11760151_x_at) / Fold change /veh LOC730098 (11760151_x_at) / RFU OR4N2 (11742367_at) / Fold change /veh OR4N2 (11742367_at) / RFU PRRT2 (11749266_a_at) / Fold change /veh PRRT2 (11749266_a_at) / RFU SNX32 (11753110_a_at) / Fold change /veh SNX32 (11753110_a_at) / RFU CDHR5 (11726645_a_at) / Fold change /veh CDHR5 (11726645_a_at) / RFU RCAN1 (11760418_a_at) / Fold change /veh RCAN1 (11760418_a_at) / RFU FAM167A (11723789_a_at) / Fold change /veh FAM167A (11723789_a_at) / RFU FAM26E (11764081_at) / Fold change /veh FAM26E (11764081_at) / RFU ISYNA1 (11749810_s_at) / Fold change /veh ISYNA1 (11749810_s_at) / RFU ACY1 (11761880_at) / Fold change /veh ACY1 (11761880_at) / RFU 11764098_at / Fold change /veh 11764098_at / RFU SAMD14 (11745864_x_at) / Fold change /veh SAMD14 (11745864_x_at) / RFU NPB (11741838_a_at) / Fold change /veh NPB (11741838_a_at) / RFU TMPRSS6 (11731388_a_at) / Fold change /veh TMPRSS6 (11731388_a_at) / RFU KRTAP10-2 (11738614_at) / Fold change /veh KRTAP10-2 (11738614_at) / RFU ARHGAP8 /// PRR5-ARHGAP8 (11727945_x_at) / Fold change /veh ARHGAP8 /// PRR5-ARHGAP8 (11727945_x_at) / RFU KRTAP5-7 /// NADSYN1 (11734609_at) / Fold change /veh KRTAP5-7 /// NADSYN1 (11734609_at) / RFU RASL12 (11751679_a_at) / Fold change /veh RASL12 (11751679_a_at) / RFU CDKN2B (11736163_a_at) / Fold change /veh CDKN2B (11736163_a_at) / RFU PRF1 (11729649_at) / Fold change /veh PRF1 (11729649_at) / RFU, ZNF638 /// ZNF638-IT1 / Fold change vs veh, ZNF638 /// ZNF638-IT1 / RFU, PANK3 / Fold change vs veh, PANK3 / RFU, SH3YL1 / Fold change vs veh, SH3YL1 / RFU, ZEB2 / Fold change vs veh, ZEB2 / RFU, NRIP1 / Fold change vs veh, NRIP1 / RFU, PTTG1IP / Fold change vs veh, PTTG1IP / RFU, CAPN2 / Fold change vs veh, CAPN2 / RFU, MED14 / Fold change vs veh, MED14 / RFU, SNORA58 / Fold change vs veh, SNORA58 / RFU, C1orf63 / Fold change vs veh, C1orf63 / RFU, LRRFIP1 / Fold change vs veh, LRRFIP1 / RFU, NDUFAF7 / Fold change vs veh, NDUFAF7 / RFU, SLC12A2 / Fold change vs veh, SLC12A2 / RFU, IBTK / Fold change vs veh, IBTK / RFU, ESF1 / Fold change vs veh, ESF1 / Fold change vs veh, TMEM50B / RFU, TAOK1 / Fold change vs veh, TAOK1 / RFU, ACBD3 / Fold change vs veh, ACBD3 / RFU, TMA16 / Fold change vs veh, TMA16 / RFU, RWDD3 / Fold change vs veh, RWDD3 / RFU, BCAT1 / Fold change vs veh, BCAT1 / RFU, EDEM3 / Fold change vs veh, EDEM3 / RFU, TMEM33 / Fold change vs veh, TMEM33 / RFU, WDR75 / Fold change vs veh, WDR75 / RFU, AHCTF1 / Fold change vs veh, AHCTF1 / RFU, TFRC / Fold change vs veh, TFRC / RFU, ZDHHC17 / Fold change vs veh, ZDHHC17 / RFU, NOM1 / Fold change vs veh, NOM1 / RFU, ARL8B / Fold change vs veh, ARL8B / RFU, ZBTB11 / Fold change vs veh, ZBTB11 / RFU, TAMM41 / Fold change vs veh, TAMM41 / RFU, KIAA1704 /// LOC100996395 / Fold change vs veh, KIAA1704 /// LOC100996395 / RFU, ING1 / Fold change vs veh, ING1 / RFU, TRMT61B / Fold change vs veh, TRMT61B / RFU, FUBP3 / Fold change vs veh, FUBP3 / RFU, TP53 / Fold change vs veh, TP53 / RFU, TNKS2 / Fold change vs veh, TNKS2 / RFU, ZFP14 / Fold change vs veh, ZFP14 / RFU, ACTR2 / Fold change vs veh, ACTR2 / RFU, PPP3R1 / Fold change vs veh, PPP3R1 / RFU, PIK3R1 / Fold change vs veh, PIK3R1 / RFU, HNRNPA1 / Fold change vs veh, HNRNPA1 / RFU, RNF170 / Fold change vs veh, RNF170 / RFU, ZNF28 / Fold change vs veh, ZNF28 / RFU, RNGTT / Fold change vs veh, RNGTT / RFU, OGT / Fold change vs veh, OGT / RFU, BRD1 / Fold change vs veh, BRD1 / RFU, MARS / Fold change vs veh, MARS / RFU, ZNF655 / Fold change vs veh, ZNF655 / RFU, FAHD1 / Fold change vs veh, FAHD1 / RFU, BDP1 / Fold change vs veh, BDP1 / RFU, LRRCC1 / Fold change vs veh, LRRCC1 / RFU, ARID1A / Fold change vs veh, ARID1A / RFU, ZNF146 / Fold change vs veh, ZNF146 / RFU, ZNF330 / Fold change vs veh, ZNF330 / RFU, GPN3 / Fold change vs veh, GPN3 / RFU, C9orf123 / Fold change vs veh, C9orf123 / RFU, N4BP2L2 / Fold change vs veh, N4BP2L2 / RFU, ARFIP1 / Fold change vs veh, ARFIP1 / RFU, FAM179B / Fold change vs veh, FAM179B / RFU, BCL10 / Fold change vs veh, BCL10 / RFU, UHRF1BP1L / Fold change vs veh, UHRF1BP1L / RFU, BET1 / Fold change vs veh, BET1 / RFU, CNOT2 / Fold change vs veh, CNOT2 / RFU, ZNF268 / Fold change vs veh, ZNF268 / Fold change vs veh, ZNF507 / RFU, DGCR2 / Fold change vs veh, DGCR2 / RFU, WDSUB1 / Fold change vs veh, WDSUB1 / Fold change vs veh, HSP90B1 /// MIR3652 / RFU, ADSS / Fold change vs veh, ADSS / RFU, GK / Fold change vs veh, GK / RFU, ZNF148 / Fold change vs veh, ZNF148 / RFU, TAF9 / Fold change vs veh, TAF9 / RFU, SLC1A5 / Fold change vs veh, SLC1A5 / RFU, SLMO2 / Fold change vs veh, SLMO2 / RFU, ABCC4 / Fold change vs veh, ABCC4 / RFU, LOC101060439 /// RAP1B / Fold change vs veh, LOC101060439 /// RAP1B / RFU, RFX7 / Fold change vs veh, RFX7 / RFU, GTPBP10 / Fold change vs veh, GTPBP10 / RFU, CNEP1R1 / Fold change vs veh, CNEP1R1 / RFU, BIVM-ERCC5 /// ERCC5 / Fold change vs veh, BIVM-ERCC5 /// ERCC5 / RFU, ILF3 / Fold change vs veh, ILF3 / RFU 11762660_at / Fold change /veh 11762660_at / RFU VCAN (11757783_s_at) / Fold change /veh VCAN (11757783_s_at) / RFU DDX43 (11728927_at) / Fold change /veh DDX43 (11728927_at) / RFU KRT8 (11758188_x_at) / Fold change /veh KRT8 (11758188_x_at) / RFU NKD1 (11759106_at) / Fold change /veh NKD1 (11759106_at) / RFU SRD5A1 (11742802_a_at) / Fold change /veh SRD5A1 (11742802_a_at) / RFU TPSAB1 /// TPSB2 (11721975_s_at) / Fold change /veh TPSAB1 /// TPSB2 (11721975_s_at) / RFU GSTM3 (11746129_a_at) / Fold change /veh GSTM3 (11746129_a_at) / RFU IL23R (11737362_x_at) / Fold change /veh IL23R (11737362_x_at) / RFU TMEM51 (11727254_a_at) / Fold change /veh TMEM51 (11727254_a_at) / RFU PIWIL2 (11732686_x_at) / Fold change /veh PIWIL2 (11732686_x_at) / RFU ORM1 (11744905_x_at) / Fold change /veh ORM1 (11744905_x_at) / RFU CCDC152 (11743942_at) / Fold change /veh CCDC152 (11743942_at) / RFU ECM1 (11717891_a_at) / Fold change /veh ECM1 (11717891_a_at) / RFU IL23R (11748794_a_at) / Fold change /veh IL23R (11748794_a_at) / RFU TNFAIP8L3 (11732012_x_at) / Fold change /veh TNFAIP8L3 (11732012_x_at) / RFU MBOAT4 (11741988_at) / Fold change /veh MBOAT4 (11741988_at) / RFU 11764193_at / Fold change /veh 11764193_at / RFU TMEM53 (11763286_at) / Fold change /veh TMEM53 (11763286_at) / RFU MAGEB2 (11727129_at) / Fold change /veh MAGEB2 (11727129_at) / RFU TMEM200A (11744735_a_at) / Fold change /veh TMEM200A (11744735_a_at) / RFU CCDC152 (11751479_a_at) / Fold change /veh CCDC152 (11751479_a_at) / RFU FAM211A (11726209_a_at) / Fold change /veh FAM211A (11726209_a_at) / RFU RGS16 (11746705_a_at) / Fold change /veh RGS16 (11746705_a_at) / RFU VCAN (11755009_s_at) / Fold change /veh VCAN (11755009_s_at) / RFU RHOB (11743442_s_at) / Fold change /veh RHOB (11743442_s_at) / RFU RGS16 (11720943_a_at) / Fold change /veh RGS16 (11720943_a_at) / RFU RGS16 (11720944_at) / Fold change /veh RGS16 (11720944_at) / RFU, VPS4B / Fold change vs veh, VPS4B / RFU, CREB1 / Fold change vs veh, CREB1 / RFU, DNAJC13 / Fold change vs veh, DNAJC13 / RFU, GNAQ / Fold change vs veh, GNAQ / RFU, CDK5R1 / Fold change vs veh, CDK5R1 / RFU, ZRANB3 / Fold change vs veh, ZRANB3 / RFU, CUL4A / Fold change vs veh, CUL4A / RFU, CCNY / Fold change vs veh, CCNY / RFU, UFL1 / Fold change vs veh, UFL1 / RFU, COG3 / Fold change vs veh, COG3 / RFU, DIAPH2 / Fold change vs veh, DIAPH2 / RFU, SKA2 / Fold change vs veh, SKA2 / RFU, AFF3 / Fold change vs veh, AFF3 / RFU, LMF1 / Fold change vs veh, LMF1 / RFU, IPO11 / Fold change vs veh, IPO11 / RFU, DFFB / Fold change vs veh, DFFB / RFU, FOXP1 / Fold change vs veh, FOXP1 / RFU, CARD8 / Fold change vs veh, CARD8 / RFU, STRN3 / Fold change vs veh, STRN3 / RFU, ADK / Fold change vs veh, ADK / RFU, RASSF2 / Fold change vs veh, RASSF2 / RFU, WIPF1 / Fold change vs veh, WIPF1 / RFU, LARP1B / Fold change vs veh, LARP1B / RFU, RASA1 / Fold change vs veh, RASA1 / RFU, RB1 / Fold change vs veh, RB1 / RFU, PPFIA1 / Fold change vs veh, PPFIA1 / RFU, MAT2A / Fold change vs veh, MAT2A / RFU, CCT5 / Fold change vs veh, CCT5 / RFU, WDR92 / Fold change vs veh, WDR92 / RFU, CUX1 / Fold change vs veh, CUX1 / RFU, TTC7A / Fold change vs veh, TTC7A / RFU, TMEM135 / Fold change vs veh, TMEM135 / RFU, DEPTOR / Fold change vs veh, DEPTOR / RFU, CPM / Fold change vs veh, CPM / RFU, DNAJB6 / Fold change vs veh, DNAJB6 / RFU, CACNA2D3 / Fold change vs veh, CACNA2D3 / RFU, DTX4 / Fold change vs veh, DTX4 / RFU, TFCP2 / Fold change vs veh, TFCP2 / RFU, GMCL1 /// GMCL1P1 / Fold change vs veh, GMCL1 /// GMCL1P1 / RFU, AEBP2 / Fold change vs veh, AEBP2 / RFU, SNHG1 /// SNORD22 /// SNORD25 /// SNORD26 /// SNORD27 /// SNORD28 /// SNORD29 /// SNORD31 / Fold change vs veh, SNHG1 /// SNORD22 /// SNORD25 /// SNORD26 /// SNORD27 /// SNORD28 /// SNORD29 /// SNORD31 / Fold change (Aza/veh), C12orf56 (ProbeSet 11735607_a_at) / Fold change (ACY-1035/veh), C12orf56 (ProbeSet 11735607_a_at) / Fold change (Aza/veh), FGFR1OP (ProbeSet 11751329_s_at) / Fold change (ACY-1035/veh), FGFR1OP (ProbeSet 11751329_s_at) / Fold change (Aza/veh), VPS36 (ProbeSet 11739960_a_at) / Fold change (ACY-1035/veh), VPS36 (ProbeSet 11739960_a_at) / RFU SYPL1 (11715823_x_at) / Fold change /veh SYPL1 (11715823_x_at) / RFU IGFBP7 (11715501_s_at) / Fold change /veh IGFBP7 (11715501_s_at) / RFU REEP3 (11722064_at) / Fold change /veh REEP3 (11722064_at) / RFU IGLL1 (11728026_x_at) / Fold change /veh IGLL1 (11728026_x_at): dose or concentration left out as unconfirmed
Details: gene VPS36; Azacitidine vs DMSO; LIST F

Nc1ncn([C@@H]2O[C@H](CO)[C@@H](O)[C@H]2O)c(=O)n1 [azacitidine]
Fold change (Aza/veh), VPS36 (ProbeSet 11739960_a_at): 1.14
